The source made the active and inactive calls. The calls are words filed in the database; no cut-off is given here.

The values below come from ChEMBL document CHEMBL1144071, “Elisabatins A and B: new amphilectane-type diterpenes from the West Indian sea whip Pseudopterogorgia elisabethae” (1999).

Assay [1] has as its system Human immunodeficiency virus. The experiment in a line: Antiviral activity against HIV by NCI test. Type of assay: functional, organism-based.
In assay [2] the test system is Mycobacterium tuberculosis. The experiment in a line: Antimycobacterial activity against Mycobacterium tuberculosis at 12.5 ug/mL. Format: functional.

Regarding `CC(C)=C[C@@H]1C[C@H](C)c2c(O)cc(C)c3c2C1=C(C)C(=O)C3=O` [ELISABATIN A], in assay [1], the outcome was inactive. The molecule further displayed an Activity in assay [2] of 21%.
